The text below walks through data of ChEMBL document CHEMBL1201862, “PubChem BioAssay data set” (2004).

Test systems include HCT-116; 786-0; SK-OV-3; SNB-75; U-251; OVCAR-3; NCI/ADR-RES; OVCAR-5; HT-29; IGROV-1; NCI-H460; ACHN; OVCAR-8; SR; SN12C; T47D; CCRF-CEM; K562; BT-549; Malme-3M.
Common to all, as to assay: growth of human tumour cells (NCI), 48 h

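Values below derive from 48-hour exposures of cells grown in 96-well plates, with endpoints linearly interpolated between the two concentrations bracketing the appropriate inhibition level. GI50 is the concentration that inhibits growth by half.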 The source made the active and inactive calls. No stated cut-off is given here; in the data, active = GI50 up to about 1.1 µM and inactive = higher.

For the compound `O=S(=O)(Nc1ccc2ccc3cccc4ccc1c2c34)c1ccccc1`, the GI50 in the experiment on HCT-116 was 30.8 µM (inactive); in the experiment with 786-0 it was 29 µM (inactive); in the experiment with SK-OV-3, 58.3 µM (inactive); in the experiment on SNB-75, 55.7 µM (inactive); with U-251, 50.4 µM (inactive); in the experiment on OVCAR-3 it was 8.26 µM (inactive). Moreover, the GI50 was 35.1 µM (inactive) with NCI/ADR-RES; > 100 µM (inactive) in the experiment on OVCAR-5; 49.2 µM (inactive) in the experiment on HT-29; 18.7 µM (inactive) in the experiment on IGROV-1; 37.3 µM (inactive) in the experiment on NCI-H460; 36.1 µM (inactive) with ACHN. Moreover, the GI50 was > 100 µM (inactive) with OVCAR-8; 2.67 µM (inactive) in the experiment with SR; 15 µM (inactive) in the experiment with SN12C; 28.4 µM (inactive) in the experiment with T47D; 14.1 µM (inactive) with CCRF-CEM; 6.7 µM (inactive) in the experiment with K562. The GI50 with BT-549 was > 100 µM (inactive); with Malme-3M, 38.9 µM (inactive).

Take `COc1c2ccsc2c(OC)c2ccsc12`: the GI50 was > 100 µM (inactive) in the experiment on HCT-116; > 100 µM (inactive) in the experiment on 786-0; > 100 µM (inactive) in the experiment on SK-OV-3; 42.6 µM (inactive) with SNB-75; 95.7 µM (inactive) with U-251; > 100 µM (inactive) in the experiment with OVCAR-3. The GI50 in the experiment with NCI/ADR-RES, in the experiment on OVCAR-5, in the experiment on HT-29, in the experiment on IGROV-1, in the experiment on NCI-H460 and in the experiment with ACHN was > 100 µM (inactive) each time. For the same compound, the GI50 in the experiment on OVCAR-8, in the experiment with SR, in the experiment with SN12C, in the experiment on T47D, with CCRF-CEM and in the experiment with K562 was > 100 µM (inactive) throughout. In addition, the GI50 in the experiment with BT-549 and in the experiment with Malme-3M was > 100 µM (inactive) in each case.

For the compound `Cc1cc2[nH]c(Cl)c(/C=C3\C(=O)Nc4ccccc43)c2cc1O`, the GI50 with HCT-116 was 2.8 µM (inactive); in the experiment with 786-0, 5.4 µM (inactive); with SK-OV-3 it was 4.83 µM (inactive); with SNB-75 it was 3.45 µM (inactive); with U-251, 2.26 µM (inactive); in the experiment with OVCAR-3, 4.61 µM (inactive). Also, the GI50 in the experiment with NCI/ADR-RES is 3.25 µM (inactive); with OVCAR-5, 6.46 µM (inactive); in the experiment with HT-29, 4.07 µM (inactive); in the experiment on IGROV-1, 1.8 µM (inactive); with NCI-H460 it was 3.91 µM (inactive); in the experiment with ACHN, 6.53 µM (inactive). For the same compound, the GI50 in the experiment with OVCAR-8 is 3.75 µM (inactive); with SR it was 0.228 µM (active); in the experiment on SN12C, 3.38 µM (inactive); in the experiment on T47D, 10.9 µM (inactive); with CCRF-CEM, 1.2 µM (inactive); in the experiment on K562 it was 0.957 µM (active). The GI50 in the experiment on BT-549 was 6.53 µM (inactive); in the experiment with Malme-3M, 1.6 µM (inactive).

With `CCC(CC)(CO)CNc1cc(Cl)nc(N)n1`, the GI50 in the experiment on HCT-116, in the experiment with 786-0, with SK-OV-3, with SNB-75, with U-251 and in the experiment on OVCAR-3 was > 100 µM (inactive) each time. The GI50 in the experiment on NCI/ADR-RES, in the experiment with OVCAR-5, with HT-29, in the experiment on IGROV-1, with NCI-H460 and with ACHN was > 100 µM (inactive) throughout. Also, the GI50 in the experiment on OVCAR-8 was > 100 µM (inactive); in the experiment on SR, > 100 µM (inactive); in the experiment with SN12C, > 100 µM (inactive); with T47D, 45.6 µM (inactive); in the experiment on CCRF-CEM, > 100 µM (inactive); in the experiment on K562, > 100 µM (inactive). For the same compound, the GI50 with BT-549 and with Malme-3M was > 100 µM (inactive) in each case.

As to `CC(=O)NC1C(OCc2ccccc2)OC(CO)C(O)C1OCC(=O)N[C@@H](C)C(=O)N[C@H](CCC(=O)NCCNCCNc1c2ccccc2nc2cccc([N+](=O)[O-])c12)C(N)=O` (stereo not given in full), the GI50 in the experiment with HCT-116 is 19.5 µM (inactive); in the experiment on 786-0, 25.4 µM (inactive); in the experiment on SK-OV-3, 78.5 µM (inactive); in the experiment with SNB-75 it was 33.2 µM (inactive); with U-251, 34.3 µM (inactive); in the experiment with OVCAR-3, 44 µM (inactive). The GI50 in the experiment on NCI/ADR-RES is > 100 µM (inactive); in the experiment on OVCAR-5 it was 53.3 µM (inactive); with HT-29, 23.6 µM (inactive); in the experiment on IGROV-1, 8.87 µM (inactive); with NCI-H460, 15.1 µM (inactive); with ACHN, 26.7 µM (inactive). The GI50 with OVCAR-8 was 27.4 µM (inactive); with SR, 18.1 µM (inactive); with SN12C, 59.7 µM (inactive); in the experiment with T47D it was 27.5 µM (inactive); with CCRF-CEM it was 24 µM (inactive); in the experiment on K562, 32.3 µM (inactive). The GI50 is > 10 µM (inactive) in the experiment on BT-549 and 19.2 µM (inactive) with Malme-3M.

For the compound `CC(=O)N1C(C(=O)NN2CCOCC2)CSC1c1ccccc1` (stereo not given), the GI50 with HCT-116, in the experiment on 786-0, with SK-OV-3, in the experiment with SNB-75, with U-251 and in the experiment on OVCAR-3 was > 100 µM (inactive) throughout. The GI50 in the experiment with NCI/ADR-RES, in the experiment on OVCAR-5, with HT-29, with IGROV-1, with NCI-H460 and in the experiment on ACHN was > 100 µM (inactive) each time. Further, the GI50 in the experiment with OVCAR-8, in the experiment on SR, in the experiment with SN12C, with T47D, in the experiment on CCRF-CEM and with K562 was > 100 µM (inactive) throughout. In addition, the GI50 in the experiment with BT-549 and in the experiment with Malme-3M was > 100 µM (inactive) throughout.

On to `Cc1ccc2nc(-c3ccccc3)cc(=O)n2c1`, for which the GI50 in the experiment on HCT-116, with 786-0, in the experiment with SK-OV-3, in the experiment on SNB-75, in the experiment on U-251 and in the experiment on OVCAR-3 was > 100 µM (inactive) each time. The GI50 in the experiment on NCI/ADR-RES was 69.7 µM (inactive); with OVCAR-5 it was > 100 µM (inactive); in the experiment on HT-29 it was > 100 µM (inactive); in the experiment with IGROV-1, > 100 µM (inactive); in the experiment with NCI-H460, > 100 µM (inactive); with ACHN, > 100 µM (inactive). Further, the GI50 was > 100 µM (inactive) with OVCAR-8; > 100 µM (inactive) in the experiment on SR; > 100 µM (inactive) in the experiment on SN12C; 38.6 µM (inactive) in the experiment with T47D; > 100 µM (inactive) in the experiment on CCRF-CEM; > 100 µM (inactive) with K562. The GI50 in the experiment on BT-549 and in the experiment with Malme-3M was > 100 µM (inactive) in each case.

For `COc1cc2cc(C(=O)N3CC(COS(C)(=O)=O)c4ccc(NC(=O)OCc5ccccc5)cc43)[nH]c2c(OC)c1OC` (stereo not given), the GI50 in the experiment on HCT-116 was > 100 µM (inactive); with 786-0, > 100 µM (inactive); in the experiment with SK-OV-3, > 100 µM (inactive); with SNB-75, 28.9 µM (inactive); in the experiment with U-251, > 100 µM (inactive); in the experiment on OVCAR-3, > 100 µM (inactive). Moreover, the GI50 with NCI/ADR-RES was > 100 µM (inactive); in the experiment on OVCAR-5 it was > 100 µM (inactive); with HT-29, > 100 µM (inactive); in the experiment on IGROV-1 it was > 100 µM (inactive); in the experiment on NCI-H460, 91.8 µM (inactive); in the experiment with ACHN it was > 100 µM (inactive). Moreover, the GI50 in the experiment on OVCAR-8 is > 100 µM (inactive); in the experiment with SR it was 3.24 µM (inactive); in the experiment on SN12C, > 100 µM (inactive); with T47D it was > 100 µM (inactive); with CCRF-CEM, > 100 µM (inactive); with K562 it was > 100 µM (inactive). For the same compound, the GI50 in the experiment with BT-549 and in the experiment on Malme-3M was > 100 µM (inactive) each time.

In the case of `CCCC(=O)Nc1cn(COC)c(C(=O)N2C[C@H]3C[C@@]34C2=CC(=O)c2[nH]cc(C)c24)n1`, the GI50 in the experiment with HCT-116 is 4.68 µM (inactive); in the experiment on 786-0, 2.79 µM (inactive); in the experiment with SK-OV-3, 16.7 µM (inactive); with SNB-75 it was 4.73 µM (inactive); in the experiment on U-251 it was 4.42 µM (inactive); with OVCAR-3 it was 10.4 µM (inactive). Besides, the GI50 in the experiment on NCI/ADR-RES was 6.21 µM (inactive); with OVCAR-5 it was 12.4 µM (inactive); in the experiment with HT-29, 7.35 µM (inactive); with IGROV-1 it was 9.93 µM (inactive); in the experiment with NCI-H460, 3.24 µM (inactive); with ACHN, 2.42 µM (inactive). The GI50 in the experiment with OVCAR-8 is 2.69 µM (inactive); in the experiment on SR, 2.2 µM (inactive); in the experiment with SN12C, 11.5 µM (inactive); in the experiment with T47D, 1.88 µM (inactive); in the experiment with CCRF-CEM, 0.71 µM (active); in the experiment with K562, 5.31 µM (inactive). The results for the GI50 in the experiment on BT-549 and with Malme-3M were 9.2 µM (inactive) and 2.44 µM (inactive), respectively.
